Measured values from patent US4268678A, “4-(Arylaliphatic)isoxazoles” (Sterling Drug Inc., priority 1979, dated 1981).
In brackets after ≈: the same amount, converted by molar mass.

These compounds were tested on herpes simplex virus type 2 (assay: in vitro antiviral testing against herpes simplex virus type 2 (MIC by standard serial dilution)). Conditions: Human alphaherpesvirus 2, herpes simplex virus type 2 (herpes 2), read-out: minimal inhibitory concentration (MIC).
Assay type: cell-based
Description: They are useful in combatting viruses present on inanimate surfaces as well as viral infections in animal organisms. […] The MIC values were determined by standard serial dilution procedures.

SMILES | MIC
CCc1noc(CC)c1CCCCCCOc1ccc(OC)cc1Cl [Example 1, 4-[6-(2-Chloro-4-methoxyphenoxy)hexyl]-3,5-diethylisoxazole] | 6 µg/mL (≈ 16.4 µM)
CCc1noc(CC)c1Cc1ccc(C)cc1 [Example 2, 3,5-Diethyl-4-[(4-methylphenyl)methyl]isoxazole] | 1.5 µg/mL (≈ 6.54 µM)
CCc1noc(CC)c1Cc1ccc(OC)cc1 [Example 3, 3,5-Diethyl-4-[(4-methoxyphenyl)methyl]isoxazole] | 25 µg/mL (≈ 102 µM)
CCc1noc(CC)c1CCCCCCOc1ccc(OC)cc1[N+](=O)[O-] [Example 5, 3,5-Diethyl-4-[6-(4-methoxy-2-nitrophenoxy)hexyl]isoxazole] | 3 µg/mL (≈ 7.97 µM)
CCc1noc(CC)c1CCCCOc1ccc(OC)cc1Cl [Example 7, 4-[4-(2-Chloro-4-methoxyphenoxy)butyl]-3,5-diethylisoxazole] | 6 µg/mL (≈ 17.8 µM)

The remaining lines, values ahead:

MIC | SMILES
12 µg/mL (≈ 42.9 µM) | CCc1noc(CC)c1Cc1ccc(OC)cc1Cl [Example 4, 4-[(2-Chloro-4-methoxyphenyl)methyl]-3,5-diethylisoxazole]
12 µg/mL (≈ 31.6 µM) | CCc1noc(CC)c1CCCCCCOc1ccc(Br)cc1 [Example 6, 4-[6-(4-Bromophenoxy)hexyl]-3,5-diethylisoxazole]
> 25 µg/mL | CCc1noc(CC)c1CCCCCCCOc1ccc(OC)cc1Cl [Example 8, 4-[7-(2-Chloro-4-methoxyphenoxy)heptyl]-3,5-diethylisoxazole]
